Laboratory results taken from patent publication US20070185431A1, “Galvanic Current Skin Treatment” (priority 2006, published 2007).
“Also recorded” adds a separate entry of the source.

Tests used:
[1] = cited from earlier work
[2] = Franz cell skin penetration of the other compounds with and without current (Phoresor)
From the text: Thus, for a 1% theobromine solution, a Tris-glycine buffer at pH 12 was chosen. […] By putting theobromine into 0.1N NaOH at pH 12, this compound is ionized to a negative charge. No information was readily available regarding the pKa of Ergothioneine (Thiotaine) but based on its structure, it would appear to have a relatively low pKa and thus be negatively charged at pH 8.0.
For experiments, the electrodes from the Phoresor were applied to the Franz unit with the negative electrode in contact with the skin's surface and in contact with the compound solution being applied. Each compound was tested on 5 skins for skin penetration without current and 5 skins for skin penetration with current.
Note that the time=0 for the bar graphs discussed below represents the time at which the galvanic current was terminated.
A 60 microliter solution of aminophylline in PBS (pH 7.0) gelled slightly with 0.5% HEC was applied to human breast skin mounted in Franz cell chambers. A 0.4 mAmp current was applied for either 6.25 minutes (for a 2.5 mAmp×time dose) or 12.5 minutes to produce a 5 mAmp×time dose. At 6 hours samples were withdrawn for analysis and a second dose applied only to the skin receiving a 2.5 mAmp×time pulse at T=0. Samples were withdrawn for analysis at T=12 hours and again at T=24 hours.
Thus, its rate of dissociation is not going to be high in an aqueous solvent. in order to shift the equilibrium to the anion form of theobromine we prepared a 1% solution in Tris-glycine buffer adjusted to pH 12 with IN NaOH. Franz studies were then carried out using a 2.5 mAmp×time pulse.

[3] = Skin penetration of caffeine in modified Franz cells with galvanic current application device; format: in vitro ADME, human
From the text: According to one embodiment, another method and apparatus relates to a modified Franz cell instrument and method of testing iontophoresis across a cellular membrane and the effects of an electrical current on the membrane after the electrical current has been removed. […] In this embodiment, a electrical current application device 18 is operably coupled to the Franz cell via a copper wire that connects the two electrodes of the device 18 to the Franz cell. In this embodiment, the negative electrode 16 contacts the surface of the cellular membrane via a copper wafer electrode while the positive electrode 14 is placed in the lower Franz fluid reservoir 12 to complete the circuit. Alternatively, any configuration that allows for application of an electrical current to the cellular membrane placed in the Franz cell is contemplated. According to one embodiment, the apparatus as set forth in FIG. 2 can be used to test the effects of applying electrical current to a cellular membrane.
To perform this examination, three modified Franz cells—each similar to the apparatus depicted in FIG. 2—were placed in series. […] As is understood in the art, 1 milliamp equals 1,000 microamps.
To determine the effectiveness of the current application device in enhancing the penetration of caffeine through human skin, a 1% caffeine solution was prepared in saline solution at a pH of 7.2 and an infinite dose (500 micro liters) applied to the surface of human skin mounted onto Franz cell units. One set of skin samples was left untreated to serve as the control group for passive skin penetration of caffeine. A second set was treated with one 3 minute cycle of the Galvanic unit delivering 120 microamps per skin. The standard convention for expressing the current “dose” the skin receives is Current×Time. Thus, the skin in this group received 360 microamp-minutes of current (120 microamps×3 minutes). A third group of skins were treated with 3 cycles of current (1080 microamp-minutes [shown as 1.1 mA]), and the fourth group received a dose of 4.32 mAmp-minutes (12 cycles at 3 minutes/cycle delivering 120 microamps).
Samples were collected at 6, 12 and 24 hours and the amount of caffeine present in the receptor fluid determined by HPLC.

[4] = Skin penetration of caffeine in Franz cells with iontophoretic instrument, pre-selected current dose; format: in vitro ADME, human
Protocol: For the first studies, Franz cells were dosed once with either: 1) no current (control), 2) 2 mAmp-minutes, 3) 5 mAmp-minutes, or 4)10 mAmp-minutes. Samples of the Franz receptor fluid were analyzed at 6, 12 and 24 hours after the current dose.
Because a consumer might use this product morning and evening, we separated the dose treatments by 10 hours. The experimental protocol involved applying a saline solution of 1% caffeine (pH 7.2) to human skins mounted in Franz cells. The groups were: 1) control-no dosing, 2) a dose of 2.5 mAmp-minute (0.375 mAmps for 6.67 minutes) repeated at 10 hours, and 3) a single 5 mAmp-minute. All groups contained 5 replicates. For these studies, the caffeine was only applied to the skin during the dosing phase. When a second current application was applied to the 2.5 mAmp-minute group at 10 hours, not only was the caffeine solution added to these skin samples, but it was also placed on the 5 mAmp-minute skins even though these were not treated again with current. This controlled for any skin penetration simply due to the presence of the caffeine solution on the skin. After dosing was completed any remaining caffeine solution was removed from the skin.
Because of the long duration of these studies, dosing was usually initiated at 7:00 am and 6 hours later the first samples were collected for analysis. At T=10 hours (5 pm) a second sample was collected and the 2.5 mAmp-minute group dosed a second time. At T=16 hours (11:00 pm) another sample was collected from the lower reservoir, and at T=24 the final samples were collected.
For this study, the caffeine solution was not removed from skins immediately after dosing but left on the skin for the duration of the experiment.
We conducted dose-response studies to begin to answer this question. For these studies, skins were dosed only once with either 0.6, 1.3, 2.5 or 5 mAmp-minutes with the current held constant at 375 uamps, the maximum output of the Galvanic unit. To each skin 400 microliters of a 1% caffeine in saline solution was applied. In order to minimize evaporation during the study, the caffeine solution was gelled slightly with hydroxyethylcellulose. Six hours after dosing, samples from the lower receptor fluid were collected and analyzed for caffeine.

[5] = cited from earlier work; remark: listed apart in the source

NC(=O)NCCC[C@H](N)C(=O)O [Citrulline]
pKa [1]: 9.4

C[N+](C)(C)[C@@H](Cc1c[nH]c(=S)[nH]1)C(=O)[O-] [Thiotaine, Ergothioneine]
skin penetration to lower chamber reservoir without current ([2]; no current, 24 hours): no compound had penetrated the skin
relative skin permeability among the compounds studied ([2]; simple buffer systems): least permeable
levels in the lower reservoir with current ([2]; single dose of 2.5 mAmp×time, 12 and 24 hours): measurable Thiotaine levels in the lower reservoir

Cn1c(=O)c2[nH]cnc2n(C)c1=O [aminophylline]
increase in skin flux [2]: only a modest increase in skin flux
skin penetration enhancement, FIG. 9A [2]: produced enhanced skin penetration
skin penetration without current [2]: relatively high skin penetration
enhancement in skin penetration over control values, extrapolated ([2]; human, 1 %): 23%
enhancement in skin penetration, extrapolated ([2]; human, 1 %): 9%
increase in skin penetration ([2]; human, 24 h, 1 %): approximately 1.7 fold
skin penetration: two treatments of 2.5 mAmp×time versus single 5 mAmp×time pulse ([2]; human, 24 h, 1 %, pH 7): did not equal the skin penetration seen with a single 5 amp×time pulse
pKa [1]: 5.0

Cn1c(=O)c2c(ncn2C)n(C)c1=O [caffeine]
penetration enhancement of caffeine through the skin ([3]; 1 cycle (360 microamp-minutes)): ineffective in causing any detectable penetration enhancement
penetration enhancement of caffeine compared to control ([3]; 3 cycles (1080 microamp-minutes), 24 hours): some marginal enhancement of penetration; also recorded: some small enhancement in skin penetration
penetration enhancement of caffeine through human skin ([3]; 6 cycles (2.2 mAmp-minutes), 24 hours): did enhance delivery of caffeine
amount of caffeine that had penetrated skin relative to control group ([3]; 12 cycles (4.32 mAmp-minutes), 24 hours, 1% caffeine in saline pH 7.2): 6 times
time at which increase in skin penetration was detectable ([3]; 12 cycles (4.32 mAmps-min)): ≤ 6 h
skin penetration: two 2.5 mAmp-minute doses versus one dose [4]: significantly more skin penetration of caffeine than one dose
increase in the penetration of caffeine ([4]; 2 mAmp-minute dose, 6 hours after treatment): 1.5 fold
time post-dosing at which penetration enhancement was detectable ([4]; 2.5 and 5 mAmp-minute groups, caffeine removed after dosing): ≤ 6 h
increase in the amount of caffeine penetrating the skin ([4]; 5 mAmp-minute dose, 6 hours): 3 fold
amount of caffeine present in the receptor as fraction of applied dose ([4]; 5 mAmp-minute dose, 24 hours): 4 % of applied dose
time after dosing at which enhanced penetration can be detected ([4]; 5 mAmp-minute dose, caffeine solution left on skin): ≤ 3 h
increase in the amount of caffeine penetrating the skin ([4]; 10 mAmp-minute dose, 6 hours): 4 fold
amount of caffeine penetrated: 2.5 mAmp-minute dosed twice versus 5 mAmp-minute dosed once ([4]; 24 hours): no significant difference; also recorded: as much caffeine penetration as a single 5 mAmp-minute dose
effect of a second 5 mAmp-minute dose versus a single 5 mAmp-minute dose ([4]; 24 hours, caffeine left on skin): no additional accumulation of caffeine; also recorded: does not appear to significantly enhance caffeine skin penetration
caffeine in the receptor without current ([4]; control skins, no current, 3 hours): no presence of caffeine in the receptor
time after dosing at which skin penetration enhancement can be detected ([4]; single 2.5 mAmp-minute dose): ≤ 3 h
skin penetration enhancement ([4]; single dose of 0.6 mAmp-minutes at 375 uamps, 6 hours, gelled 1% caffeine): will enhance skin penetration
current level above which maximal skin penetration occurs (sigmoidal fit) ([4]; single dose, 6 hours): 3-5 mAmp-minutes
penetration enhancement of single 2.5 mAmp-minute dose relative to single 5 mAmp-minute dose ([4]; single doses): about 50%

CCOC(=O)c1cccnc1 [ethyl nicotinate]
skin penetration enhancement [2]: enhanced skin penetration
time after application at which compound is detectable in the lower reservoir fluid ([2]; human, 1 %): ≤ 2 h
time at which enhanced effect of current is detectable ([2]; human, 1 %): about 4 hour
amount of compound in the receptor fluid ([2]; human, 24 h, 1 %): over 1000 micrograms

Cn1cnc2c1c(=O)[nH]c(=O)n2C [theobromine]
skin penetration from the solvent used ([2]; pH 12): relatively poorly
pKa [1]: 9.9
solubility [5]: virtually insoluble in any solvent except dilute alkali; also recorded: essentially insoluble in any solvent other than alkali
